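Cultured in 96-well plates, cells were exposed to test compound for 48 hours across five concentrations. The concentration for 50% growth inhibition is given as GI50.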 The source made the active and inactive calls. Cut-off read from the data, not from the text of the source: active = GI50 up to about 1.1 µM and inactive = higher.
Assays:
Assay in all cases: NCI tumour cell line growth inhibition, 48 h
UACC-257 = system: UACC-257
SN12C = system: SN12C
SF-268 = system: SF-268
K562 = system: K562
NCI-H460 = system: NCI-H460
HOP-92 = system: HOP-92
SW-620 = system: SW-620
LOX IMVI = system: LOX IMVI
NCI-H226 = system: NCI-H226
OVCAR-8 = system: OVCAR-8
Hs-578T = system: Hs-578T
HL-60 = system: HL-60
HCT-15 = system: HCT-15
ACHN = system: ACHN
OVCAR-4 = system: OVCAR-4
786-0 = system: 786-0
HT-29 = system: HT-29
M14 = system: M14
COLO 205 = system: COLO 205
MDA-N = system: MDA-N

Structure (SMILES) | GI50 (UACC-257) | GI50 (SN12C) | GI50 (SF-268) | GI50 (K562) | GI50 (NCI-H460) | GI50 (HOP-92) | GI50 (SW-620) | GI50 (LOX IMVI) | GI50 (NCI-H226) | GI50 (OVCAR-8) | GI50 (Hs-578T) | GI50 (HL-60) | GI50 (HCT-15) | GI50 (ACHN) | GI50 (OVCAR-4) | GI50 (786-0) | GI50 (HT-29) | GI50 (M14) | GI50 (COLO 205) | GI50 (MDA-N)
CCNCCC1(CC)C(=O)NC(=O)NC1=O | > 100 µM (inactive) | > 100 µM (inactive) | > 100 µM (inactive) | > 100 µM (inactive) | > 100 µM (inactive) | > 100 µM (inactive) | > 100 µM (inactive) | > 100 µM (inactive) | > 100 µM (inactive) | > 100 µM (inactive) | > 100 µM (inactive) | 0.0288 µM (active) | > 100 µM | > 100 µM (inactive) | > 100 µM (inactive) | > 100 µM (inactive) | > 100 µM (inactive) | > 100 µM (inactive) | > 100 µM (inactive) | –
O=C1Cc2cc3ccccc3nc2-c2ccccc2N1 | 99.1 µM (inactive) | > 100 µM (inactive) | 81.5 µM (inactive) | 39.9 µM (inactive) | 63.7 µM (inactive) | 41.7 µM (inactive) | > 100 µM (inactive) | 38.6 µM (inactive) | > 100 µM (inactive) | 35.3 µM (inactive) | 28.8 µM (inactive) | > 100 µM (inactive) | 96.6 µM | 54.7 µM (inactive) | 45.6 µM (inactive) | 35.1 µM (inactive) | 55.1 µM (inactive) | > 100 µM (inactive) | > 100 µM (inactive) | –
CC(=O)[C@@]1(C)CC2(CCN(C)CC2)OC1C (stereo partly specified) | > 100 µM (inactive) | > 100 µM (inactive) | > 100 µM (inactive) | > 100 µM (inactive) | > 100 µM (inactive) | > 100 µM (inactive) | > 100 µM (inactive) | > 100 µM (inactive) | > 100 µM (inactive) | > 100 µM (inactive) | – | – | > 100 µM | > 100 µM (inactive) | > 100 µM (inactive) | > 100 µM (inactive) | > 100 µM (inactive) | > 100 µM (inactive) | > 100 µM (inactive) | > 100 µM (inactive)
COc1cc2c(cc1OC)[Se]c1cc(OC)c(OC)cc1[Se]2 | > 10 µM (inactive) | > 10 µM (inactive) | > 10 µM (inactive) | 6.64 µM (inactive) | > 10 µM (inactive) | 69 µM (inactive) | > 10 µM (inactive) | 80 µM (inactive) | > 10 µM (inactive) | > 10 µM (inactive) | – | 3.93 µM (inactive) | 5.3 µM | > 10 µM (inactive) | > 10 µM (inactive) | > 10 µM (inactive) | 6.81 µM (inactive) | > 10 µM (inactive) | > 10 µM (inactive) | –
CCCCCCCCCc1cccc(N2C(N)=NC(N)=NC2(C)C)c1 | 0.0611 µM (active) | 0.0198 µM (active) | < 0.023 µM (active) | < 0.01 µM (active) | < 0.01 µM (active) | 1.58 µM (inactive) | < 0.01 µM (active) | < 0.01 µM (active) | 1.26 µM (inactive) | < 0.01 µM (active) | 1.04 µM (active) | < 0.01 µM (active) | < 0.01 µM | < 0.0158 µM (active) | < 0.01 µM (active) | < 0.01 µM (active) | < 0.01 µM (active) | < 0.01 µM (active) | 0.0209 µM (active) | –
CCN(CC)/C(=C\Cl)Nc1ccccn1.[O-][Cl+3]([O-])([O-])O | > 100 µM (inactive) | > 100 µM (inactive) | > 100 µM (inactive) | > 100 µM (inactive) | > 100 µM (inactive) | > 100 µM (inactive) | > 100 µM (inactive) | > 100 µM (inactive) | > 100 µM (inactive) | > 100 µM (inactive) | – | > 100 µM (inactive) | > 100 µM | > 100 µM (inactive) | > 100 µM (inactive) | > 100 µM (inactive) | > 100 µM (inactive) | > 100 µM (inactive) | > 100 µM (inactive) | –
c1ccc2c(c1)OCCOCCOc1ccccc1OCCO2 | 84.7 µM (inactive) | 76 µM (inactive) | > 100 µM (inactive) | 28.4 µM (inactive) | 36.3 µM (inactive) | 51.5 µM (inactive) | 26.9 µM (inactive) | 51.9 µM (inactive) | 79.6 µM (inactive) | 78 µM (inactive) | – | 24.8 µM (inactive) | 43.9 µM | 51.9 µM (inactive) | 39.3 µM (inactive) | 86.9 µM (inactive) | 33.3 µM (inactive) | 44.9 µM (inactive) | 50.5 µM (inactive) | –
Cc1cc([C@H](C#N)c2nc3ccccc3[nH]2)nc(Cl)n1 | 26.5 µM (inactive) | 51.2 µM (inactive) | > 100 µM (inactive) | > 100 µM (inactive) | 24.5 µM (inactive) | 20.1 µM (inactive) | 24.2 µM (inactive) | 38.8 µM (inactive) | 48 µM (inactive) | 30.4 µM (inactive) | > 100 µM (inactive) | 19.2 µM (inactive) | 25.8 µM | 38.2 µM (inactive) | 40.4 µM (inactive) | 54.5 µM (inactive) | 41.7 µM (inactive) | – | 42.1 µM (inactive) | –
CC1=C(c2cc(C(=O)Nc3ccc(Cl)c(Cl)c3)nc(N)n2)Sc2ccccc2N1 | > 100 µM (inactive) | > 100 µM (inactive) | > 100 µM (inactive) | 62.5 µM (inactive) | > 100 µM (inactive) | > 100 µM (inactive) | > 100 µM (inactive) | > 100 µM (inactive) | > 100 µM (inactive) | > 100 µM (inactive) | – | > 100 µM (inactive) | > 100 µM | > 100 µM (inactive) | > 100 µM (inactive) | > 100 µM (inactive) | > 100 µM (inactive) | > 100 µM (inactive) | > 100 µM (inactive) | –
COc1cc2c(c(OC)c1OC)-c1ccc(SC)c(=O)cc1C(CC(=O)Oc1ccc(F)cc1)C2 (stereo unspecified) | 38.9 µM (inactive) | 0.367 µM (active) | 0.622 µM (active) | 0.15 µM (active) | 0.253 µM (active) | 1.21 µM (inactive) | 0.0918 µM (active) | 0.236 µM (active) | 0.231 µM (active) | 0.333 µM (active) | – | 0.043 µM (active) | 0.26 µM | 0.18 µM (active) | 0.741 µM (active) | 0.0625 µM (active) | 0.164 µM (active) | 0.172 µM (active) | 0.133 µM (active) | –
Cc1oc2nc(N(C)C)nc(NN)c2c1C | > 100 µM (inactive) | > 100 µM (inactive) | > 100 µM (inactive) | > 100 µM (inactive) | > 100 µM (inactive) | > 100 µM (inactive) | > 100 µM (inactive) | – | > 100 µM (inactive) | > 100 µM (inactive) | > 100 µM (inactive) | > 100 µM (inactive) | > 100 µM | > 100 µM (inactive) | > 100 µM (inactive) | > 100 µM (inactive) | > 100 µM (inactive) | > 100 µM (inactive) | > 100 µM (inactive) | –
CNCCCn1c2ccccc2c2c3c(c(-c4ccsc4)cc21)C(=O)NC3=O | 1.58 µM (inactive) | 1.29 µM (inactive) | 1.51 µM (inactive) | 2.81 µM (inactive) | 1.35 µM (inactive) | – | 1.36 µM (inactive) | 1.33 µM (inactive) | 2.37 µM (inactive) | 0.281 µM (active) | 1.85 µM (inactive) | 2.22 µM (inactive) | 1.51 µM | < 0.0192 µM (active) | 1.59 µM (inactive) | 0.259 µM (active) | 0.824 µM (active) | 0.0408 µM (active) | 1.39 µM (inactive) | –
O=C1OC2(c3ccccc31)c1cc(I)c(O)c(I)c1Oc1c2cc(I)c(O)c1I [ERYTHROSINE] | > 100 µM (inactive) | > 100 µM (inactive) | > 100 µM (inactive) | > 100 µM (inactive) | > 100 µM (inactive) | > 100 µM (inactive) | > 100 µM (inactive) | 76.6 µM (inactive) | 37.4 µM (inactive) | > 100 µM (inactive) | 49.1 µM (inactive) | – | 31.3 µM | 96.8 µM (inactive) | > 100 µM (inactive) | > 100 µM (inactive) | > 100 µM (inactive) | 68.2 µM (inactive) | > 100 µM (inactive) | –
N#Cc1cc2c(cc1Cl)Sc1nnc(Nc3ccccc3)n1S2(=O)=O | 1.79 µM (inactive) | 1.71 µM (inactive) | 2.82 µM (inactive) | 1.44 µM (inactive) | 2.71 µM (inactive) | 0.798 µM (active) | 1.52 µM (inactive) | 1.73 µM (inactive) | 2.24 µM (inactive) | 2 µM (inactive) | 2.3 µM (inactive) | 3.05 µM (inactive) | 2.08 µM | 1.74 µM (inactive) | 2.68 µM (inactive) | 2.32 µM (inactive) | 2.12 µM (inactive) | 2.17 µM (inactive) | 2.18 µM (inactive) | –
COc1nc(NC2OCC(OC(C)=O)C(OC(C)=O)C2OC(C)=O)c(-c2csc(N)n2)c(=O)n1C (stereo unspecified) | > 100 µM (inactive) | > 100 µM (inactive) | > 100 µM (inactive) | > 100 µM (inactive) | > 100 µM (inactive) | > 100 µM (inactive) | > 100 µM (inactive) | > 100 µM (inactive) | > 100 µM (inactive) | > 100 µM (inactive) | – | > 100 µM (inactive) | > 100 µM | > 100 µM (inactive) | > 100 µM (inactive) | > 100 µM (inactive) | > 100 µM (inactive) | > 100 µM (inactive) | > 100 µM (inactive) | –
C=CCC1(O)CC(n2cc(C)c(=O)[nH]c2=O)OC1CO[Si](C)(C)C(C)(C)C (stereo unspecified) | 52.4 µM (inactive) | 31.6 µM (inactive) | – | 61.4 µM (inactive) | 38.7 µM (inactive) | 35.5 µM (inactive) | 73.1 µM (inactive) | 31.2 µM (inactive) | 49.5 µM (inactive) | 42.9 µM (inactive) | – | – | 44.4 µM | 45.6 µM (inactive) | 47 µM (inactive) | 44.1 µM (inactive) | 40.9 µM (inactive) | 46.7 µM (inactive) | 21.6 µM (inactive) | 51.6 µM (inactive)

Reference: ChEMBL document CHEMBL1201862, “PubChem BioAssay data set” (2004)
